Measurements as given in patent US20240239780A1, “MODIFIED FERROPORTIN INHIBITORS” (Vifor (International) AG, priority 2021, published 2024).

Each molecule was assayed against T1, ferroportin (Fpn) (Mus musculus, UniProt Q9JHI9) (assay: Hepcidin Internalization Assay (J774)). Settings: J774 cells, TMR-hepcidin 25 nM, 2 hours; read-out: IC 50, average (AVE) of multiple measurements, hepcidin internalization assay.
T1 construct: endogenous in cells; host or cells: J774 mouse macrophage cell line, induced with Fe(III)NTA
T1 sequence (Q9JHI9 1-570): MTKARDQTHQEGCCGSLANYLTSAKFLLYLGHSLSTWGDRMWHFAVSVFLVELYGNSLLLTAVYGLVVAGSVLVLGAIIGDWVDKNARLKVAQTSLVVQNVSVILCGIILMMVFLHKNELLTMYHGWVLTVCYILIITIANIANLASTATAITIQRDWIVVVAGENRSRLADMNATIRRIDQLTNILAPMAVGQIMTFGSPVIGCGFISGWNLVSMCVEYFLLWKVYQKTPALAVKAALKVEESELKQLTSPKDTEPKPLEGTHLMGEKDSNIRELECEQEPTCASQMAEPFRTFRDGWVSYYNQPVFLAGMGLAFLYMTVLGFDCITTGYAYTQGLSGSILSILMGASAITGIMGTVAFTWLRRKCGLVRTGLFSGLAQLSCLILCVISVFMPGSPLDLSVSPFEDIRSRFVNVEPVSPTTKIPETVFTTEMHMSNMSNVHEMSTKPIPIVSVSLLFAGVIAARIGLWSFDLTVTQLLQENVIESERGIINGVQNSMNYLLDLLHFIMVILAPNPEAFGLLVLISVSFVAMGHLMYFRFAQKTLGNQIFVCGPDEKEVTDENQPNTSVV
Assay type: cell-based
Excerpt: This cellular assay allows quantification of the binding of hepcidin to ferroportin (Fpn) through microscopic detection of internalization of a fluorescently labeled hepcidin into J774 cells. […] Binding of hepcidin to Fpn triggers internalization and degradation of both hepcidin and Fpn. […] Therefore, microscopic detection of cell-associated TMR fluorescence is a measure of hepcidin binding to Fpn and internalization of hepcidin and Fpn. If TMR-hepcidin is prevented from binding to Fpn, cellular TMR fluorescence remains low (Dürrenberger et al, 2013). The effect of small molecular weight Fpn inhibitor compounds in this assay was evaluated in vitro as described below. […] Cat. 655090) and grown at 37° C. with 5% CO2. After overnight incubation, cells were washed 3 times with pre-warmed DMEM w/o phenol red, 30 μl/well of DMEM w/o phenol red was added after the final wash and 10 μl/well of dilution series of test compounds were added in triplicates. […] Cells were incubated in a total volume of 50 μl at 37° C. with 5% CO2 for 2 hours, then Hoechst 33342 dye was added to a final concentration of 0.5 μg/ml to stain nuclei and further incubated for 10 min. at 37° C. with 5% CO2. […] After removal of the paraformaldehyde solution, cells were washed 3 times with PBS leaving 100 μl per well and the plates were sealed with foil plate seal. […] The acquired image data was analysed with the […] analysis software. […] IC50 values were calculated with the Sum(Mean) raw data using “log(inhibitor) vs. response” curve fitting of Prism 5 software (GraphPad Software Inc., version 5.02). For each data set the fit of the “log(inhibitor) vs. response (three parameters)” model was compared to the fit of the “log(inhibitor) vs. response-Variable slope (four parameters)” model and the IC50 data of the preferred model was used.

| Structure (SMILES) | IC50 |
| --- | --- |
| O=C(NCc1ncccc1F)c1coc(CCNCc2nc3cc4ccccc4cc3[nH]2)n1 [compound 1, 2-(2-(((1H-naphtho[2,3-d]imidazol-2-yl)methyl)amino)ethyl)-N-((3-fluoropyridin-2-yl)methyl)oxazole-4-carboxamide] | 0.04 µM |
| O=C(NCc1ncccc1F)c1coc(CCNCc2nc3cnc4ccccc4c3[nH]2)n1 [compound 2, 2-(2-(((3H-imidazo[4,5-c]quinolin-2-yl)methyl)amino)ethyl)-N-((3-fluoropyridin-2-yl)methyl)oxazole-4-carboxamide] | 0.35 µM |
| O=C(NCc1ncccc1F)c1coc(CCNCCc2nc3cnc4ccccc4c3[nH]2)n1 [compound 3, 2-(2-((2-(3H-imidazo[4,5-c]quinolin-2-yl)ethyl)amino)ethyl)-N-((3-fluoropyridin-2-yl)methyl)oxazole-4-carboxamide] | 0.593 µM |
| O=C(NCc1ncccc1F)c1coc(CCNCc2nc3c(ccc4ccccc43)[nH]2)n1 [compound 4, 2-(2-(((3H-naphtho[1,2-d]imidazol-2-yl)methyl)amino)ethyl)-N-((3-fluoropyridin-2-yl)methyl)oxazole-4-carboxamide] | 0.068 µM |
| O=C(NCc1ncccc1F)c1coc(CCNCCc2nc3c(ccc4ccccc43)[nH]2)n1 [compound 5, 2-(2-((2-(3H-naphtho[1,2-d]imidazol-2-yl)ethyl)amino)ethyl)-N-((3-fluoropyridin-2-yl)methyl)oxazole-4-carboxamide] | 0.013 µM |
| O=C(NCc1ccc2c(ccc3ccccc32)n1)c1coc(CCNCCc2nc3ccccc3[nH]2)n1 [compound 6, 2-(2-((2-(1H-benzo[d]imidazol-2-yl)ethyl)amino)ethyl)-N-(benzo[f]quinolin-3-ylmethyl)oxazole-4-carboxamide] | 1.6 µM |
| O=C(NCc1nc2ccccc2c2ccccc12)c1coc(CCNCCc2nc3ccccc3[nH]2)n1 [compound 7] | 1.59 µM |
| O=C(NCc1nc2ccccc2c2ccccc12)c1coc(CCNCCc2nc3c(ccc4ccccc43)[nH]2)n1 [compound 8] | 6.7 µM |
| O=C(NCc1ccc2c(ccc3ccccc32)n1)c1coc(CCNCCc2nc3c(cnc4ccccc43)[nH]2)n1 [compound 12] | 13.9 µM |
| Cc1cccnc1CNC(=O)c1coc(CCNCCc2nc3c(ccc4ccccc43)[nH]2)n1 [compound 13] | 0.055 µM |
| O=C(NCc1ncccc1Cl)c1coc(CCNCCc2nc3c(ccc4ccccc43)[nH]2)n1 [compound 14] | 0.033 µM |
| COc1cccnc1CNC(=O)c1coc(CCNCCc2nc3c(ccc4ccccc43)[nH]2)n1 [compound 15] | 0.033 µM |
| O=C(NCc1ncccc1C(F)(F)F)c1coc(CCNCCc2nc3c(ccc4ccccc43)[nH]2)n1 [compound 16] | 0.443 µM |
| O=C(NCc1ncccc1F)c1coc(CCNCCc2nc3c(-c4cccnc4)cccc3[nH]2)n1 [compound 18] | 0.053 µM |
| O=C(NCc1ncccc1F)c1coc(CCNCCc2nc3cc(-c4ccccc4)ccc3[nH]2)n1 [compound 19] | 0.006 µM |
| O=C(NCc1ncccc1F)c1coc(CCNCCc2nc3c(-c4ccncc4)cccc3[nH]2)n1 [compound 20] | 0.189 µM |
| O=C(NCc1ncccc1F)c1coc(CCNCCc2nc3c(-c4cccc(Cl)c4)cccc3[nH]2)n1 [compound 28] | 0.144 µM |
| O=C(NCc1ncccc1F)c1coc(CCNCCc2nc3cc(-n4cccc4)ccc3[nH]2)n1 [compound 32] | 0.027 µM |
| O=C(NCc1ncccc1F)c1coc(CCNCCc2nc3cc4c(cc3[nH]2)OCCO4)n1 [compound 34] | 0.007 µM |
| O=C(NCc1ncccc1F)c1coc(CCNCCc2nc3ccc(CN4CCOCC4)cc3[nH]2)n1 [compound 35] | 0.057 µM |
| O=C(NCc1ncccc1F)c1coc(CCNCCc2nc3cc4c(cc3[nH]2)OCO4)n1 [compound 36] | 0.011 µM |
| O=C(NCc1ncccc1F)c1coc(CCNCCc2nc3cccc(C#Cc4ccccc4)c3[nH]2)n1 [compound 37] | 0.034 µM |
| O=C(NCc1ncccc1F)c1coc(CCNCCc2nc3c4c(ccc3[nH]2)CCCC4)n1 [compound 39] | 0.012 µM |
| O=C(NCc1ncccc1F)c1coc(CCNCCc2nc3ccc(-c4nn[nH]n4)cc3[nH]2)n1 [compound 40] | 1.04 µM |
| O=C(NCc1ncccc1F)c1coc(CCNCCc2nc3cc4ccccc4cc3[nH]2)n1 [compound 43] | 0.009 µM |
| O=C(NCc1ncccc1F)c1coc(CCNCCc2nc3cc(-c4ccccc4Cl)ccc3[nH]2)n1 [compound 44] | 0.006 µM |
| COc1ccccc1-c1ccc2[nH]c(CCNCCc3nc(C(=O)NCc4ncccc4F)co3)nc2c1 [compound 45] | 0.006 µM |

| Structure (SMILES) | IC50 |
| --- | --- |
| O=C(NCc1ncccc1F)c1coc(CCNCCc2nc3cc(-c4ccccc4F)ccc3[nH]2)n1 [compound 46] | 0.007 µM |
| Cc1cccnc1CNC(=O)c1coc(CCNCCc2nc3cc4c(cc3[nH]2)OCCO4)n1 [compound 47] | 0.011 µM |
| COc1cccnc1CNC(=O)c1coc(CCNCCc2nc3cc4c(cc3[nH]2)OCCO4)n1 [compound 48] | 0.026 µM |
| COc1ccccc1-c1ccc2[nH]c(CCNCCc3nc(C(=O)NCc4ncccc4C)co3)nc2c1 [compound 49] | 0.018 µM |
| COc1cccnc1CNC(=O)c1coc(CCNCCc2nc3c4c(ccc3[nH]2)CCCC4)n1 [compound 50] | 0.019 µM |
| COc1ccccc1-c1ccc2[nH]c(CCNCCc3nc(C(=O)NCc4ncccc4OC)co3)nc2c1 [compound 51] | 0.017 µM |
| Cc1cccnc1CNC(=O)c1coc(CCNCCc2nc3cc(-c4ccccc4)ccc3[nH]2)n1 [compound 52] | 0.026 µM |
| COc1cccnc1CNC(=O)c1coc(CCNCCc2nc3cc(-c4ccccc4)ccc3[nH]2)n1 [compound 53] | 0.016 µM |
| COc1cccnc1CNC(=O)c1coc(CCNCCc2nc3cc(-n4cccc4)ccc3[nH]2)n1 [compound 54] | 0.037 µM |
| O=C(NCc1ncccc1Cl)c1coc(CCNCCc2nc3cc4c(cc3[nH]2)OCCO4)n1 [compound 55] | 0.002 µM |
| O=C(NCc1ncccc1C(F)(F)F)c1coc(CCNCCc2nc3cc4c(cc3[nH]2)OCCO4)n1 [compound 56] | 0.049 µM |
| O=C(NCc1ncccc1F)c1coc(CCNCCc2nc3cc(-c4ccc(Cl)cc4)ccc3[nH]2)n1 [compound 57] | 0.027 µM |
| O=C(NCc1ncccc1C(F)(F)F)c1coc(CCNCCc2nc3cc(-n4cccc4)ccc3[nH]2)n1 [compound 58] | 0.171 µM |
| O=C(NCc1ncccc1Cl)c1coc(CCNCCc2nc3cc(-n4cccc4)ccc3[nH]2)n1 [compound 59] | 0.028 µM |
| Cc1ccc(-c2ccc3[nH]c(CCNCCc4nc(C(=O)NCc5ncccc5F)co4)nc3c2)cc1 [compound 60] | 0.013 µM |
| O=C(NCc1ncccc1F)c1coc(CCNCCc2nc3cc(-c4cccc(F)c4)ccc3[nH]2)n1 [compound 61] | 0.011 µM |
| Cc1ccccc1-c1ccc2[nH]c(CCNCCc3nc(C(=O)NCc4ncccc4F)co3)nc2c1 [compound 62] | 0.008 µM |
| COc1cccc(-c2ccc3[nH]c(CCNCCc4nc(C(=O)NCc5ncccc5F)co4)nc3c2)c1 [compound 63] | 0.008 µM |
| COc1ccc(-c2ccc3[nH]c(CCNCCc4nc(C(=O)NCc5ncccc5F)co4)nc3c2)cc1 [compound 64] | 0.01 µM |
| Cc1cccc(-c2ccc3[nH]c(CCNCCc4nc(C(=O)NCc5ncccc5F)co4)nc3c2)c1 [compound 65] | 0.015 µM |
| O=C(NCc1ccccn1)c1coc(CCNCCc2nc3cc(-c4ccc(F)cc4)ccc3[nH]2)n1 [compound 66] | 0.068 µM |
| COCCOc1ccccc1-c1ccc2[nH]c(CCNCCc3nc(C(=O)NCc4ncccc4F)co3)nc2c1 [compound 68] | 0.007 µM |
| O=C(NCc1ccccn1)c1coc(CCNCCc2nc3cc(-c4cccc(F)c4)ccc3[nH]2)n1 [compound 69] | 0.061 µM |
| COc1cccc(-c2ccc3[nH]c(CCNCCc4nc(C(=O)NCc5ccccn5)co4)nc3c2)c1 [compound 70] | 0.026 µM |
| CCc1ccccc1-c1ccc2[nH]c(CCNCCc3nc(C(=O)NCc4ncccc4F)co3)nc2c1 [compound 71] | 0.006 µM |
| O=C(NCc1ncccc1F)c1coc(CCNCCc2nc3cc(C#Cc4ccccc4)ccc3[nH]2)n1 [compound 72] | 0.002 µM |
